{"source": "ChEMBL document CHEMBL4138123", "about": "“Design, synthesis and biological evaluation of novel pyrazolochalcones as potential modulators of PI3K/Akt/mTOR pathway and inducers of apoptosis in breast cancer cells” (Eur J Med Chem, 2017)", "type_in_all_cases": "functional", "key": {"NCI-H226 [1]": {"tested_on": "NCI-H226", "assay": "Cytotoxicity against human NCI-H226 cells assessed as growth inhibition after 48 hrs by sulforhodamine B assay", "conditions": "NCI-H226, 48 h"}, "HT-29 [2]": {"tested_on": "HT-29", "assay": "Cytotoxicity against human HT-29 cells assessed as growth inhibition after 48 hrs by sulforhodamine B assay", "conditions": "HT-29, 48 h"}, "KM12 [3]": {"tested_on": "KM12", "assay": "Cytotoxicity against human KM12 cells assessed as growth inhibition after 48 hrs by sulforhodamine B assay", "conditions": "KM12, 48 h"}, "SF-268": {"tested_on": "SF-268", "assay": "Cytotoxicity against human SF268 cells assessed as growth inhibition after 48 hrs by sulforhodamine B assay", "conditions": "SF-268, 48 h"}, "U-251": {"tested_on": "U-251", "assay": "Cytotoxicity against human U251 cells assessed as growth inhibition after 48 hrs by sulforhodamine B assay", "conditions": "U-251, 48 h"}, "OVCAR-5": {"tested_on": "OVCAR-5", "assay": "Cytotoxicity against human OVCAR5 cells assessed as growth inhibition after 48 hrs by sulforhodamine B assay", "conditions": "OVCAR-5, 48 h"}, "NCI/ADR-RES": {"tested_on": "NCI/ADR-RES", "assay": "Cytotoxicity against human NCI/ADR-RES cells assessed as growth inhibition after 48 hrs by sulforhodamine B assay"}, "PC-3": {"tested_on": "PC-3", "assay": "Cytotoxicity against human PC3 cells assessed as growth inhibition after 48 hrs by sulforhodamine B assay", "conditions": "PC-3, 48 h"}, "Hs-578T": {"tested_on": "Hs-578T", "assay": "Cytotoxicity against human Hs 578T cells assessed as growth inhibition after 48 hrs by sulforhodamine B assay"}, "BT-549": {"tested_on": "BT-549", "assay": "Cytotoxicity against human BT549 cells assessed as growth inhibition after 48 hrs by sulforhodamine B assay", "conditions": "BT-549, 48 h"}, "CCRF-CEM [4]": {"tested_on": "CCRF-CEM", "assay": "Cytotoxicity against human CCRF-CEM cells assessed as cell growth at 0.01 uM after 48 hrs by sulforhodamine B assay relative to control", "conditions": "read-out: Activity"}, "SNB-19": {"tested_on": "SNB-19", "assay": "Cytotoxicity against human SNB19 cells assessed as cell growth at 0.01 uM after 48 hrs by sulforhodamine B assay relative to control", "conditions": "SNB-19, 48 h, read-out: Activity"}, "HT-29 [5]": {"tested_on": "HT-29", "assay": "Cytotoxicity against human HT-29 cells assessed as cell growth at 0.01 uM after 48 hrs by sulforhodamine B assay relative to control", "conditions": "HT-29, 48 h, read-out: Activity"}, "NCI-H226 [6]": {"tested_on": "NCI-H226", "assay": "Cytotoxicity against human NCI-H226 cells assessed as cell growth at 0.01 uM after 48 hrs by sulforhodamine B assay relative to control", "conditions": "NCI-H226, 48 h, read-out: Activity"}, "RXF 393 [7]": {"tested_on": "RXF 393", "assay": "Cytotoxicity against human RXF393 cells assessed as cell growth at 0.01 uM after 48 hrs by sulforhodamine B assay relative to control", "conditions": "RXF 393, 48 h, read-out: Activity"}, "CCRF-CEM [8]": {"tested_on": "CCRF-CEM", "assay": "Cytotoxicity against human CCRF-CEM cells assessed as cell growth at 0.1 uM after 48 hrs by sulforhodamine B assay relative to control", "conditions": "read-out: Activity"}, "K562": {"tested_on": "K562", "assay": "Cytotoxicity against human K562 cells assessed as cell growth at 0.1 uM after 48 hrs by sulforhodamine B assay relative to control", "conditions": "K562, 48 h, read-out: Activity"}, "UACC-257 [9]": {"tested_on": "UACC-257", "assay": "Cytotoxicity against human UACC257 cells assessed as cell growth at 0.1 uM after 48 hrs by sulforhodamine B assay relative to control", "conditions": "UACC-257, 48 h, read-out: Activity"}, "OVCAR-8": {"tested_on": "OVCAR-8", "assay": "Cytotoxicity against human OVCAR8 cells assessed as cell growth at 0.1 uM after 48 hrs by sulforhodamine B assay relative to control", "conditions": "OVCAR-8, 48 h, read-out: Activity"}, "SK-OV-3 [10]": {"tested_on": "SK-OV-3", "assay": "Cytotoxicity against human SKOV3 cells assessed as cell growth at 0.1 uM after 48 hrs by sulforhodamine B assay relative to control", "conditions": "SK-OV-3, 48 h, read-out: Activity"}, "MDA-MB-231": {"tested_on": "MDA-MB-231", "assay": "Cytotoxicity against human MDA-MB-231 cells assessed as cell growth at 0.1 uM after 48 hrs by sulforhodamine B assay relative to control", "conditions": "MDA-MB-231, 48 h, read-out: Activity"}, "HT-29 [11]": {"tested_on": "HT-29", "assay": "Cytotoxicity against human HT-29 cells assessed as cell growth at 1 uM after 48 hrs by sulforhodamine B assay relative to control", "conditions": "HT-29, 48 h, read-out: Activity"}, "KM12 [12]": {"tested_on": "KM12", "assay": "Cytotoxicity against human KM12 cells assessed as cell growth at 1 uM after 48 hrs by sulforhodamine B assay relative to control", "conditions": "KM12, 48 h, read-out: Activity"}, "UACC-257 [13]": {"tested_on": "UACC-257", "assay": "Cytotoxicity against human UACC257 cells assessed as cell growth at 1 uM after 48 hrs by sulforhodamine B assay relative to control", "conditions": "UACC-257, 48 h, read-out: Activity"}, "UACC-62": {"tested_on": "UACC-62", "assay": "Cytotoxicity against human UACC62 cells assessed as cell growth at 1 uM after 48 hrs by sulforhodamine B assay relative to control", "conditions": "UACC-62, 48 h, read-out: Activity"}, "786-0": {"tested_on": "786-0", "assay": "Cytotoxicity against human 786-0 cells assessed as cell growth at 1 uM after 48 hrs by sulforhodamine B assay relative to control", "conditions": "786-0, 48 h, read-out: Activity"}, "RXF 393 [14]": {"tested_on": "RXF 393", "assay": "Cytotoxicity against human RXF393 cells assessed as cell growth at 1 uM after 48 hrs by sulforhodamine B assay relative to control", "conditions": "RXF 393, 48 h, read-out: Activity"}, "RPMI-8226": {"tested_on": "RPMI-8226", "assay": "Cytotoxicity against human RPMI8226 cells assessed as cell growth at 10 uM after 48 hrs by sulforhodamine B assay relative to control", "conditions": "RPMI-8226, 48 h, read-out: Activity"}, "NCI-H522": {"tested_on": "NCI-H522", "assay": "Cytotoxicity against human NCI-H522 cells assessed as cell growth at 10 uM after 48 hrs by sulforhodamine B assay relative to control", "conditions": "NCI-H522, 48 h, read-out: Activity"}, "HCT-116": {"tested_on": "HCT-116", "assay": "Cytotoxicity against human HCT116 cells assessed as cell growth at 10 uM after 48 hrs by sulforhodamine B assay relative to control", "conditions": "HCT-116, 48 h, read-out: Activity"}, "HT-29 [15]": {"tested_on": "HT-29", "assay": "Cytotoxicity against human HT-29 cells assessed as cell growth at 10 uM after 48 hrs by sulforhodamine B assay relative to control", "conditions": "HT-29, 48 h, read-out: Activity"}, "KM12 [16]": {"tested_on": "KM12", "assay": "Cytotoxicity against human KM12 cells assessed as cell growth at 10 uM after 48 hrs by sulforhodamine B assay relative to control", "conditions": "KM12, 48 h, read-out: Activity"}, "SK-OV-3 [17]": {"tested_on": "SK-OV-3", "assay": "Cytotoxicity against human SKOV3 cells assessed as cell growth at 10 uM after 48 hrs by sulforhodamine B assay relative to control", "conditions": "SK-OV-3, 48 h, read-out: Activity"}, "MDA-MB-435": {"tested_on": "MDA-MB-435", "assay": "Cytotoxicity against human MDA-MB-435 cells assessed as cell growth at 100 uM after 48 hrs by sulforhodamine B assay relative to control", "conditions": "MDA-MB-435, 48 h, read-out: Activity"}, "A498": {"tested_on": "A498", "assay": "Cytotoxicity against human A498 cells assessed as cell growth at 100 uM after 48 hrs by sulforhodamine B assay relative to control", "conditions": "A498, 48 h, read-out: Activity"}, "RXF 393 [18]": {"tested_on": "RXF 393", "assay": "Cytotoxicity against human RXF393 cells assessed as cell growth at 100 uM after 48 hrs by sulforhodamine B assay relative to control", "conditions": "RXF 393, 48 h, read-out: Activity"}}, "data": [{"smiles": "COc1ccc(C(=O)/C=C/c2cc(-c3ccc(OC)c(OC)c3)n[nH]2)cc1OC", "values": [{"measurement": "GI50", "setting": "NCI-H226 [1]", "result": 1660, "unit": "nM"}, {"measurement": "TGI", "setting": "NCI-H226 [1]", "result": 4230, "unit": "nM"}, {"measurement": "GI50", "setting": "HT-29 [2]", "result": 1380, "unit": "nM"}, {"measurement": "TGI", "setting": "HT-29 [2]", "result": 4950, "unit": "nM"}, {"measurement": "GI50", "setting": "KM12 [3]", "result": 625, "unit": "nM"}, {"measurement": "TGI", "setting": "KM12 [3]", "result": 2080, "unit": "nM"}, {"measurement": "GI50", "setting": "SF-268", "result": 2090, "unit": "nM"}, {"measurement": "TGI", "setting": "SF-268", "result": 9820, "unit": "nM"}, {"measurement": "CC50", "setting": "SF-268; read-out: LC50 (the source's name)", "result": "> 100000", "unit": "nM"}, {"measurement": "GI50", "setting": "U-251", "result": 1200, "unit": "nM"}, {"measurement": "TGI", "setting": "U-251", "result": 2630, "unit": "nM"}, {"measurement": "GI50", "setting": "OVCAR-5", "result": 1760, "unit": "nM"}, {"measurement": "TGI", "setting": "OVCAR-5", "result": 5240, "unit": "nM"}, {"measurement": "GI50", "setting": "NCI/ADR-RES", "result": 3430, "unit": "nM"}, {"measurement": "TGI", "setting": "NCI/ADR-RES", "result": 33100, "unit": "nM"}, {"measurement": "GI50", "setting": "PC-3", "result": 1980, "unit": "nM"}, {"measurement": "TGI", "setting": "PC-3", "result": 35700, "unit": "nM"}, {"measurement": "GI50", "setting": "Hs-578T", "result": 3760, "unit": "nM"}, {"measurement": "TGI", "setting": "Hs-578T", "result": "> 100000", "unit": "nM"}, {"measurement": "GI50", "setting": "BT-549", "result": 1440, "unit": "nM"}, {"measurement": "TGI", "setting": "BT-549", "result": 2920, "unit": "nM"}, {"measurement": "growth at 0.01 µM", "setting": "CCRF-CEM [4]", "result": 99, "unit": "%"}, {"measurement": "growth at 0.01 µM", "setting": "SNB-19", "result": 91, "unit": "%"}, {"measurement": "growth at 0.01 µM", "setting": "HT-29 [5]", "result": 98, "unit": "%"}, {"measurement": "growth at 0.01 µM", "setting": "NCI-H226 [6]", "result": 94, "unit": "%"}, {"measurement": "growth at 0.01 µM", "setting": "RXF 393 [7]", "result": 94, "unit": "%"}, {"measurement": "growth at 0.1 µM", "setting": "CCRF-CEM [8]", "result": 94, "unit": "%"}, {"measurement": "growth at 0.1 µM", "setting": "K562", "result": 97, "unit": "%"}, {"measurement": "growth at 0.1 µM", "setting": "UACC-257 [9]", "result": 94, "unit": "%"}, {"measurement": "growth at 0.1 µM", "setting": "OVCAR-8", "result": 98, "unit": "%"}, {"measurement": "growth at 0.1 µM", "setting": "SK-OV-3 [10]", "result": 97, "unit": "%"}, {"measurement": "growth at 0.1 µM", "setting": "MDA-MB-231", "result": 99, "unit": "%"}, {"measurement": "growth at 1 µM", "setting": "HT-29 [11]", "result": 63, "unit": "%"}, {"measurement": "growth at 1 µM", "setting": "KM12 [12]", "result": 37, "unit": "%"}, {"measurement": "growth at 1 µM", "setting": "UACC-257 [13]", "result": 96, "unit": "%"}, {"measurement": "growth at 1 µM", "setting": "UACC-62", "result": 89, "unit": "%"}, {"measurement": "growth at 1 µM", "setting": "786-0", "result": 78, "unit": "%"}, {"measurement": "growth at 1 µM", "setting": "RXF 393 [14]", "result": 76, "unit": "%"}, {"measurement": "growth at 10 µM", "setting": "RPMI-8226", "result": -30, "unit": "%"}, {"measurement": "growth at 10 µM", "setting": "NCI-H522", "result": -56, "unit": "%"}, {"measurement": "growth at 10 µM", "setting": "HCT-116", "result": -69, "unit": "%"}, {"measurement": "growth at 10 µM", "setting": "HT-29 [15]", "result": -28, "unit": "%"}, {"measurement": "growth at 10 µM", "setting": "KM12 [16]", "result": -80, "unit": "%"}, {"measurement": "growth at 10 µM", "setting": "SK-OV-3 [17]", "result": 9, "unit": "%"}, {"measurement": "growth at 100 µM", "setting": "MDA-MB-435", "result": 2, "unit": "%"}, {"measurement": "growth at 100 µM", "setting": "A498", "result": -55, "unit": "%"}, {"measurement": "growth at 100 µM", "setting": "RXF 393 [18]", "result": -90, "unit": "%"}]}]}
